{"source": "patent US10301278B2", "about": "“1-(triazin-3-yl/pyridazin-3-yl)-piper(-azine)idine derivatives and compositions therefor for inhibiting the activity of SHP2” (NOVARTIS AG, priority 2014, dated 2019)"}
{"target": "SHP2 (Homo sapiens (Human), UniProt Q06124)", "sequence (Q06124 whole entry)": "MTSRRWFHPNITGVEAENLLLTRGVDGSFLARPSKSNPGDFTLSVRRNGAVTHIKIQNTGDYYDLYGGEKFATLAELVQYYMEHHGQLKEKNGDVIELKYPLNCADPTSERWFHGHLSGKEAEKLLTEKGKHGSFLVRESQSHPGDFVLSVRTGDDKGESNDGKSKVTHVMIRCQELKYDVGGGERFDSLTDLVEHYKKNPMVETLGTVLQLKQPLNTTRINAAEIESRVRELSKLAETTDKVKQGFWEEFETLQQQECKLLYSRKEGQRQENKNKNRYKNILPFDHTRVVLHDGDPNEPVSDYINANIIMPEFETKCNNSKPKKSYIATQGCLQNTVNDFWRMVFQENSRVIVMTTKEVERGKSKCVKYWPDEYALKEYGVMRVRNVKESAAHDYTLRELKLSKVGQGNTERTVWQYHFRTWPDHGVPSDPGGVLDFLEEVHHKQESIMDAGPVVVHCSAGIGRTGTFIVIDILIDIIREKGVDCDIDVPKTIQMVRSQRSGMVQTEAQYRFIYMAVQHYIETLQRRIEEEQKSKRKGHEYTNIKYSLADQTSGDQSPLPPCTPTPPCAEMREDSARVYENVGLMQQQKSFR", "assay": "SHP2 allosteric inhibition assay (DiFMUP prompt fluorescence)", "type": "biochemical", "settings": "not given", "protocol": "(§1) SHP2 is allosterically activated through binding of bis-tyrosyl-phorphorylated peptides to its Src Homology 2 (SH2) domains. The latter activation step leads to the release of the auto-inhibitory interface of SHP2, which in turn renders the SHP2 protein tyrosine phosphatase (PTP) active and available for substrate recognition and reaction catalysis. The catalytic activity of SHP2 was monitored using the surrogate substrate DiFMUP in a prompt fluorescence assay format.\n(§2) After 30-60 minutes incubation at 25° C., the surrogate substrate DiFMUP (Invitrogen, cat#D6567) was added to the reaction and incubated at 25° C. for 30 minutes. […] The fluorescence signal was monitored using a microplate reader (Envision, Perki-Elmer) using excitation and emission wavelengths of 340 nm and 450 nm, respectively. The inhibitor dose response curves were analyzed using normalized IC50 regression curve fitting with control based normalization.", "units": {"IC50": "nM"}}
{"smiles": "CC1(N)CCN(c2cnc(Sc3cccc(Cl)c3Cl)c(N)n2)CC1", "note": "[Example 1, 6-(4-amino-4-methylpiperidin-1-yl)-3-((2,3-dichlorophenyl)thio)pyrazin-2-amine]", "IC50": 29}
{"target": "SHP2 (Homo sapiens (Human), UniProt Q06124)", "assay": "SHP2 allosteric inhibition assay (DiFMUP prompt fluorescence)", "type": "biochemical", "settings": "0.5 nM SHP2 activated with 0.5 μM peptide IRS1_pY1172(dPEG8)pY1222; substrate DiFMUP; 25° C.; read-out: IC50", "protocol": "as §1, §2", "units": {"IC50": "nM"}}
{"smiles": "CC1(N)CCN(c2cnc(Sc3ccccc3Cl)c(N)n2)CC1", "note": "[Example 2]", "IC50": 70}
{"smiles": "CC1(N)CCN(c2cnc(Sc3ccccc3C(F)(F)F)c(N)n2)CC1", "note": "[Example 4, 6-(4-amino-4-methylpiperidin-1-yl)-3-((2-(trifluoromethyl)phenyl)thio)pyrazin-2-amine]", "IC50": 59}
{"smiles": "CC1(N)CCN(c2cnc(Sc3cc(Cl)ccc3Cl)c(N)n2)CC1", "note": "[Example 5]", "IC50": 1080}
{"smiles": "CC1(N)CCN(c2cnc(Sc3ccc(Cl)cc3Cl)c(N)n2)CC1", "note": "[Example 6]", "IC50": 210}
{"smiles": "COc1ccc(Cl)c(Sc2ncc(N3CCC(C)(N)CC3)nc2N)c1", "note": "[Example 7]", "IC50": 13700}
{"smiles": "CC1(N)CCN(c2cnc(Oc3cccc(Cl)c3Cl)c(N)n2)CC1", "note": "[Example 8]", "IC50": 64400}
{"smiles": "CC1(N)CCN(c2cnc(Sc3cc(O)ccc3Cl)c(N)n2)CC1", "note": "[Example 9, 3-((3-amino-5-(4-amino-4-methylpiperidin-1-yl)pyrazin-2-yl)thio)-4-chlorophenol]", "IC50": 307}
{"smiles": "COc1cccc(Sc2ncc(N3CCC(C)(N)CC3)nc2N)c1Cl", "note": "[Example 10, 6-(4-amino-4-methylpiperidin-1-yl)-3-((2-chloro-3-methoxyphenyl)thio)pyrazin-2-amine]", "IC50": 56}
{"smiles": "CC1(N)CCN(c2cnc(Sc3cccc(NC(=O)c4ccc5ccccc5c4)c3Cl)c(N)n2)CC1", "note": "[Example 13]", "IC50": 257}
{"smiles": "CC1(N)CCN(c2nnc(Sc3cccc(Cl)c3Cl)c(N)n2)CC1", "note": "[Example 14, 3-(4-amino-4-methylpiperidin-1-yl)-6-((2,3-dichlorophenyl)thio)-1,2,4-triazin-5-amine]", "IC50": 143}
{"smiles": "CC1(N)CCN(c2nnc(Sc3ccccc3Cl)c(N)n2)CC1", "note": "[Example 15]", "IC50": 266}
{"smiles": "CC1(CN)CCN(c2cnc(Sc3cccc(N)c3Cl)c(N)n2)CC1", "note": "[Example 20]", "IC50": 22}
{"smiles": "CC1(N)CCN(c2cnc(Sc3cccc(N)c3C(F)(F)F)c(N)n2)CC1", "note": "[Example 21]", "IC50": 46}
{"smiles": "CC1(N)CCN(c2cnc(Sc3ccc(Br)cc3Cl)c(N)n2)CC1", "note": "[Example 22]", "IC50": 44}
{"smiles": "CC1(N)CCN(c2cnc(Sc3ccc(F)cc3Cl)c(N)n2)CC1", "note": "[Example 23]", "IC50": 51}
{"smiles": "C[C@@]1(N)CCN(c2cnc(Sc3cccc(Cl)c3Cl)c(N)n2)C[C@H]1O", "note": "[Example 24]", "IC50": 49}
{"smiles": "CC1(N)CCN(c2cnc(Sc3ccc(F)cc3C(F)(F)F)c(N)n2)CC1", "note": "[Example 26]", "IC50": 67}
{"smiles": "NCC1(c2cccnc2)CCN(c2cnc(Sc3cccc(Cl)c3Cl)c(N)n2)CC1", "note": "[Example 28, 6-(4-(aminomethyl)-4-(pyridin-3-yl)piperidin-1-yl)-3-((2,3-dichlorophenyl)thio)pyrazin-2-amine]", "IC50": 54}
{"smiles": "CC1(N)CCN(c2cnc(Sc3cccnc3C(F)(F)F)c(N)n2)CC1", "note": "[Example 30]", "IC50": 66}
{"smiles": "Nc1cccc(Sc2ncc(N3CCC(N)(CO)CC3)nc2N)c1Cl", "note": "[Example 32]", "IC50": 195}
{"smiles": "CC1(CN)CCN(c2nc(N)c(Sc3cccc(Cl)c3Cl)nc2C(N)=O)CC1", "note": "[Example 33, 5-amino-3-(4-(aminomethyl)-4-methylpiperidin-1-yl)-6-((2,3-dichlorophenyl)thio)pyrazine-2-carboxamide]", "IC50": 19}
{"smiles": "CC1(CN)CCN(c2nc(N)c(Sc3cccnc3C(F)(F)F)nc2C(N)=O)CC1", "note": "[Example 35]", "IC50": 109}
{"smiles": "CC1(N)CCN(c2cnc(Sc3ccncc3Cl)c(N)n2)CC1", "note": "[Example 36, 6-(4-amino-4-methylpiperidin-1-yl)-3-((3-chloropyridin-4-yl)thio)pyrazin-2-amine]", "IC50": 76}
{"smiles": "CC1(N)CCN(c2cnc(Sc3ccnc(C(F)(F)F)c3Cl)c(N)n2)CC1", "note": "[Example 37]", "IC50": 82}
{"smiles": "CC1(N)CCN(c2cnc(Sc3ccc(-c4nn[nH]n4)cc3Cl)c(N)n2)CC1", "note": "[Example 38, 6-(4-amino-4-methylpiperidin-1-yl)-3-((2-chloro-4-(2H-tetrazol-5-yl)phenyl)thio)pyrazin-2-amine]", "IC50": 23}
{"smiles": "CC1(CN)CCN(c2cnc(Sc3cccnc3Cl)c(N)n2)CC1", "note": "[Example 39, 6-(4-(aminomethyl)-4-methylpiperidin-1-yl)-3-((2-chloropyridin-3-yl)thio)pyrazin-2-amine]", "IC50": 26}
{"smiles": "NCC1(c2cscn2)CCN(c2cnc(Sc3cccnc3C(F)(F)F)c(N)n2)CC1", "note": "[Example 40, 6-(4-(aminomethyl)-4-(thiazol-4-yl)piperidin-1-yl)-3-((2-(trifluoromethyl)pyridin-3-yl)thio)pyrazin-2-amine]", "IC50": 79}
{"smiles": "CC1(CN)CCN(c2cnc(Sc3ccnc(N)c3Cl)c(N)n2)CC1", "note": "[Example 42, 3-((2-amino-3-chloropyridin-4-yl)thio)-6-(4-(aminomethyl)-4-methylpiperidin-1-yl)pyrazin-2-amine]", "IC50": 23}
{"smiles": "CC1(CN)CCN(c2cnc(Sc3ccnc(Cl)c3Cl)c(N)n2)CC1", "note": "[Example 43, 6-(4-(aminomethyl)-4-methylpiperidin-1-yl)-3-((2,3-dichloropyridin-4-yl)thio)pyrazin-2-amine]", "IC50": 14}
{"smiles": "NCC1(F)CCN(c2cnc(Sc3cccc(N)c3Cl)c(N)n2)CC1", "note": "[Example 44, 3-((3-amino-2-chlorophenyl)thio)-6-(4-(aminomethyl)-4-fluoropiperidin-1-yl)pyrazin-2-amine]", "IC50": 271}
{"smiles": "CC1(CN)CCN(c2cnc(Sc3cccnc3C(F)(F)F)c(N)c2)CC1", "note": "[Example 45]", "IC50": 351}
{"smiles": "NCC1CCCN(c2cnc(Sc3cccnc3C(F)(F)F)c(N)n2)C1", "note": "(stereo not drawn) [Example 46]", "IC50": 459}
{"smiles": "NCC1(O)CCN(c2cnc(Sc3cccc(N)c3Cl)c(N)n2)CC1", "note": "[Example 47]", "IC50": 382}
{"smiles": "CC1(CN)CCN(c2cnc(Sc3ccncc3F)c(N)n2)CC1", "note": "[Example 48]", "IC50": 177}
{"smiles": "CC1(CN)CCN(c2cnc(Sc3ccnc(Cl)c3Cl)c(N)n2)CC1", "note": "[Example 49]", "IC50": 100}
{"smiles": "CCC1(CN)CCN(c2cnc(Sc3ccnc(N)c3Cl)c(N)n2)CC1", "note": "[Example 50]", "IC50": 59}
{"smiles": "CCCC1(CN)CCN(c2cnc(Sc3ccnc(N)c3Cl)c(N)n2)CC1", "note": "[Example 51]", "IC50": 17}
{"smiles": "Nc1nc(N2CCC(N)(CO)CC2)cnc1Sc1ccnc(Cl)c1Cl", "note": "[Example 52, (4-amino-1-(6-amino-5-((2,3-dichloropyridin-4-yl)thio)pyrazin-2-yl)piperidin-4-yl)methanol]", "IC50": 62}
{"smiles": "Nc1nc(N2CCC(N)(CO)CC2)cnc1Sc1ccnc(N)c1Cl", "note": "[Example 53]", "IC50": 315}
{"smiles": "Nc1nc(N2CCC(N)(CO)CC2)cnc1Sc1cccnc1C(F)(F)F", "note": "[Example 54]", "IC50": 170}
{"smiles": "CC1(CN)CCN(c2cnc(Sc3cc(N)nc(Cl)c3Cl)c(N)n2)CC1", "note": "[Example 55]", "IC50": 17.7}
